Data on 26 compounds can be found in US8686024B2, “Indoline derivatives” (priority 2009, dated 2014).

Assay [1] has as its target T1, acetylcholine esterase (AChE) (Mus musculus, UniProt P21836).
T1 construct: brain homogenate and serum of mouse were used as choline esterase enzyme sources; from tissue; host or cells: mouse brain homogenate
T1 sequence (P21836 32-614): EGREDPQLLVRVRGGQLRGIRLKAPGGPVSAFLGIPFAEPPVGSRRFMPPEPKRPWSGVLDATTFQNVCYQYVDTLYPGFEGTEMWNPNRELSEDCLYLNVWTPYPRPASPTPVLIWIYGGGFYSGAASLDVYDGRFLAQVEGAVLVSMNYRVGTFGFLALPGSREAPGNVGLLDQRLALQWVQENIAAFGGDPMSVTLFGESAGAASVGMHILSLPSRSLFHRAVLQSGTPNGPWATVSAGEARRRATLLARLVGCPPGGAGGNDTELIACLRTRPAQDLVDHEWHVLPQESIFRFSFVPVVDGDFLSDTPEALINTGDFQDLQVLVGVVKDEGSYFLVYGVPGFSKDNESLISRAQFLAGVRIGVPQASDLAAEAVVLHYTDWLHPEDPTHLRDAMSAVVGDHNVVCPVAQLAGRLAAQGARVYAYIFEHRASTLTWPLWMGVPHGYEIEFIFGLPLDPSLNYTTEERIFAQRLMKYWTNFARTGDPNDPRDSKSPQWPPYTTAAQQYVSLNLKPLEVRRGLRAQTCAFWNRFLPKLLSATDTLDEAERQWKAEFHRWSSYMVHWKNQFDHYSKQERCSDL
The assay is described as follows: In vitro assay for choline esterase inhibition (Ellman method), acetylthiocholine substrate, mouse brain homogenate. The assay is classed as biochemical. How it is done: (§1) For measurement of esterase activity, brain homogenate and serum of mouse were used as choline esterase enzyme sources, and the method of Ellman et. al (Biochemical pharmacology 7: 88-95 1961) were referred. Compound of each example were diluted in dimethylsulfoxide.
(§2) In detail, acetylthiocholine or butyrylthiocholine as substrates, test compounds, and DNTB [[…]] were added to the mouse brain homogenate or serum, respectively.
(§3) After incubation, thiocholine was produced by enzyme reaction in the mixture, and then, the yellow product was formed by the reaction of thiocholine and DTNB. The activity of acetylcholine esterase (AChE) or butyrylcholine esterase (BuChE) was evaluated by determination of absorbance at 415 nm. […] And the selectivity for BuChE inhibition of each compound was calculated by the ratio: IC50 (AchE)/IC50 (BuChE).
Background: Ellman's reagent forms a yellow product with free thiols.

Assay [2] has as its target T2, butyrylcholine esterase (BuChE) (Mus musculus, UniProt Q03311).
T2 construct: brain homogenate and serum of mouse were used as choline esterase enzyme sources; from tissue; host or cells: mouse serum
The assay is described as follows: In vitro assay for choline esterase inhibition (Ellman method), butyrylthiocholine substrate, mouse serum. The assay is classed as biochemical. The following applies: for Ratio AChE/BuChE: selectivity for BuChE inhibition: IC50 (AchE)/IC50 (BuChE); for selectivity to butyrylcholinesterase (BuChE versus AChE inhibitory activity), in words: summary of Tables 1-3. Here is the method:
as §1, §2, §3

Setting [3] is: mouse brain homogenate, acetylthiocholine, absorbance at 415 nm, read-out: AChE inhibitory activity IC50.
[4] abbreviates: mouse serum, butyrylthiocholine, absorbance at 415 nm, read-out: BuChE inhibitory activity IC50.

Read-outs that look alike come from different tables or passages of the source. A value given as a limit tells only on which side of the number the result lay.

T2 sequence (Q03311 30-603): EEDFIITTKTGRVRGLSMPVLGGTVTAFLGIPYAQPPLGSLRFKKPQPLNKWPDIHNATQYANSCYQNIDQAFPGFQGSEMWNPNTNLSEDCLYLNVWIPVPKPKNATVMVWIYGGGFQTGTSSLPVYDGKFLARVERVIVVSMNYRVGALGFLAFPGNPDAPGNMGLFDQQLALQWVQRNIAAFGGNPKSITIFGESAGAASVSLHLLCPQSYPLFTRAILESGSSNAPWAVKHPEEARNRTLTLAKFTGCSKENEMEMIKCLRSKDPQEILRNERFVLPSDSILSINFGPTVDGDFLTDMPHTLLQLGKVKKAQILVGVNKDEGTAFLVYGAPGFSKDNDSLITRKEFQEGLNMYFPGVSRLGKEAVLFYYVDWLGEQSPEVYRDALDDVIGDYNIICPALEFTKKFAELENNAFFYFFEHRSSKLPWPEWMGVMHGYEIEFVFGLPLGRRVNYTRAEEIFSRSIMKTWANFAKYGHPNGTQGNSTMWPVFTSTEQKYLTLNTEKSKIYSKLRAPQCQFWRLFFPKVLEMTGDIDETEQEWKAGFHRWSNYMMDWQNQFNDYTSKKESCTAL

Broadly, the IC50 is the concentration at which inhibition is half-maximal. As to `CC(C)c1ccc(NC(=O)Oc2ccc3c(c2)CCN3Cc2ccccc2)cc1` [Example 2, 1-benzylindolin-5-yl 4-isopropylphenylcarbamate], the IC50 in assay [1] is more than 100000 nM; in assay [2], 570 nM. In addition, the “Ratio AChE/BuChE” value in assay [2] is more than 180.

Compound `CC(C)c1ccc(NC(=O)Oc2ccc3c(c2)CCN3CCc2ccccc2)cc1` [Example 3, 1-phenethylindolin-5-yl 4-isopropylphenylcarbamate] showed an IC50 in assay [1] of more than 100000 nM. In addition, in assay [2], the IC50 was 1200 nM and the “Ratio AChE/BuChE” value is more than 83.

For the compound `CC(C)c1ccc(NC(=O)Oc2ccc3c(c2)CCN3CCC(C)(C)C)cc1` [Example 7, 1-(3,3-dimethylbutyl)indolin-5-yl 4-isopropylphenylcarbamate], the IC50 was more than 100000 nM in assay [1] and 900 nM in assay [2]. For the same compound, in assay [2], the “Ratio AChE/BuChE” value is more than 110.

On to `COc1ccc(NC(=O)Oc2ccc3c(c2)CCN3Cc2ccccc2)cc1` [Example 9, 1-benzylindolin-5-yl 4-methoxyphenylcarbamate], for which the IC50 in assay [1] is more than 100000 nM. In assay [2], the IC50 worked out at 98 nM; the “Ratio AChE/BuChE” value is reported as more than 1000; the “selectivity to butyrylcholinesterase (BuChE versus AChE inhibitory activity), in words” value is listed as “much higher”.

Consider `O=C(Nc1ccc2c(c1)OCCO2)Oc1ccc2c(c1)CCN2Cc1ccccc1` [Example 11, 1-benzylindolin-5-yl 2,3-dihydro-1,4-benzodioxin-6-ylcarbamate], for which the IC50 in assay [1] is more than 100000 nM. In assay [2], half-maximal inhibition (IC50) was put at 170 nM and the “Ratio AChE/BuChE” value is reported as more than 590.

Turning to `O=C(Nc1ccc2c(c1)OCO2)Oc1ccc2c(c1)CCN2Cc1ccccc1` [Example 12, 1-benzylindolin-5-yl 5-benzo[d][1,3]dioxolylcarbamate], the IC50 is 11000 nM in assay [1] (setting [3]) and 290 nM in assay [2] (setting [4]). In addition, the “Ratio AChE/BuChE” value in assay [2] is recorded as 38.

Take `O=C(Nc1ccc2c(c1)CCO2)Oc1ccc2c(c1)CCN2Cc1ccccc1` [Example 14, 1-benzylindolin-5-yl 2,3-dihydro-1-benzofuran-5-ylcarbamate]: the values for the IC50 in assay [1] (setting [3]) and in assay [2] (setting [4]) were 2700 nM and 41 nM, respectively. For the same compound, the “Ratio AChE/BuChE” value in assay [2] is listed as 66.

With `O=C(NCc1ccccc1)Oc1ccc2c(c1)CCN2Cc1ccccc1` [Example 15, 1-benzylindolin-5-yl benzylcarbamate], the IC50 in assay [1] (setting [3]) is 1800 nM. For the same compound, in assay [2] (setting [4]), the IC50 worked out at 13 nM. Besides, in assay [2], the “Ratio AChE/BuChE” value turned out to be 140 and the “selectivity to butyrylcholinesterase (BuChE versus AChE inhibitory activity), in words” value was “much higher”.

Take `O=C(NCCc1ccccc1)Oc1ccc2c(c1)CCN2Cc1ccccc1` [Example 16, 1-benzylindolin-5-yl phenethylcarbamate]: in assay [1] (setting [3]), the IC50 was 9800 nM. Besides, in assay [2] (setting [4]), the IC50 came to 42 nM. Further, in assay [2], the “Ratio AChE/BuChE” value amounted to 230 and the “selectivity to butyrylcholinesterase (BuChE versus AChE inhibitory activity), in words” value is reported as “much higher”.

For the compound `CCCCCCNC(=O)Oc1ccc2c(c1)CCN2Cc1ccccc1` [Example 17, 1-benzylindolin-5-yl n-hexylcarbamate], the IC50 in assay [1] (setting [3]) turned out to be 8000 nM. For the same compound, in assay [2] (setting [4]), the IC50 amounted to 16 nM. In addition, in assay [2], the “Ratio AChE/BuChE” value was found to be 500 and the “selectivity to butyrylcholinesterase (BuChE versus AChE inhibitory activity), in words” value is on record as “much higher”.

Take `O=C(NCc1ccco1)Oc1ccc2c(c1)CCN2Cc1ccccc1` [Example 18, 1-benzylindolin-5-yl furfurylcarbamate]: the IC50 in assay [1] (setting [3]) was found to be 1800 nM; in assay [2] (setting [4]), 38 nM. Moreover, the “Ratio AChE/BuChE” value in assay [2] was determined as 47.

In assay [1], `C[C@H](NC(=O)Oc1ccc2c(c1)CCN2Cc1ccccc1)c1ccccc1` [Example 19, 1-benzylindolin-5-yl (S)-1-phenylethylcarbamate] yielded an IC50 of more than 100000 nM. In assay [2], the IC50 turned out to be 190 nM and the “Ratio AChE/BuChE” value is more than 530.

With `O=C(NC1CCCCC1)Oc1ccc2c(c1)CCN2Cc1ccccc1` [Example 20, 1-benzylindolin-5-yl cyclohexylcarbamate], in assay [1], the half-inhibitory concentration (IC50) is more than 100000 nM. Besides, in assay [2], the IC50 was determined as 67 nM; the “Ratio AChE/BuChE” value is on record as more than 1500; the “selectivity to butyrylcholinesterase (BuChE versus AChE inhibitory activity), in words” value is “much higher”.

On to `CC(C)c1ccc(NC(=O)Oc2ccc3c(c2)CCN3Cc2ccncc2)cc1` [Example 27, 1-(4-pyridylmethyl)indolin-5-yl 4-isopropylphenylcarbamate], for which the IC50 in assay [1] is more than 100000 nM. Besides, in assay [2], the IC50 worked out at 1100 nM and the “Ratio AChE/BuChE” value is on record as more than 91.

Turning to `CC(C)c1ccc(NC(=O)Oc2ccc3c(c2)CCN3Cc2cccnc2)cc1` [Example 28, 1-(3-pyridylmethyl)indolin-5-yl 4-isopropylphenylcarbamate], the IC50 in assay [1] is more than 100000 nM. Moreover, in assay [2], the IC50 stood at 470 nM and the “Ratio AChE/BuChE” value is recorded as more than 210.

On to `COc1ccc(CNC(=O)Oc2ccc3c(c2)CCN3Cc2ccccc2)cc1` [Example 31, 1-benzylindolin-5-yl 4-methoxybenzylcarbamate], for which the IC50 in assay [1] (setting [3]) was 4100 nM. In addition, the IC50 in assay [2] (setting [4]) was 17 nM. Besides, in assay [2], the “Ratio AChE/BuChE” value amounted to 240 and the “selectivity to butyrylcholinesterase (BuChE versus AChE inhibitory activity), in words” value was “much higher”.

For the compound `COc1ccc(CCNC(=O)Oc2ccc3c(c2)CCN3Cc2ccccc2)cc1` [Example 32, 1-benzylindolin-5-yl 4-methoxyphenethylcarbamate], the IC50 in assay [1] was more than 100000 nM. Moreover, in assay [2], the IC50 amounted to 160 nM and the “Ratio AChE/BuChE” value was more than 630.

Compound `CC(C)c1ccc(CCNC(=O)Oc2ccc3c(c2)CCN3Cc2ccccc2)cc1` [Example 33, 1-benzylindolin-5-yl 4-isopropylphenethylcarbamate] returned an IC50 in assay [1] of more than 100000 nM. Further, in assay [2], inhibition was half-maximal at 350 nM (IC50) and the “Ratio AChE/BuChE” value is more than 290.

Compound `O=C(NCC1CCCCC1)Oc1ccc2c(c1)CCN2Cc1ccccc1` [Example 34, 1-benzylindolin-5-yl cyclohexylmethylcarbamate] had an IC50 in assay [1] of more than 100000 nM. Further, in assay [2], the IC50 stood at 3 nM; the “Ratio AChE/BuChE” value was more than 33000; the “selectivity to butyrylcholinesterase (BuChE versus AChE inhibitory activity), in words” value is “much higher”.

On to `CC(C)CNC(=O)Oc1ccc2c(c1)CCN2Cc1ccccc1` [Example 35, 1-benzylindolin-5-yl 2-methylpropylcarbamate], for which the IC50 in assay [1] (setting [3]) was 46000 nM. The half-inhibitory concentration (IC50) in assay [2] (setting [4]) was found to be 8 nM. Besides, in assay [2], the “Ratio AChE/BuChE” value is recorded as 5800 and the “selectivity to butyrylcholinesterase (BuChE versus AChE inhibitory activity), in words” value is given as “much higher”.

As for `O=C(NC1CC1)Oc1ccc2c(c1)CCN2Cc1ccccc1` [Example 41, 1-benzylindolin-5-yl cyclopropylcarbamate], the figures for the IC50 in assay [1] (setting [3]) and in assay [2] (setting [4]) were 36000 nM and 190 nM, respectively. Moreover, the “Ratio AChE/BuChE” value in assay [2] was 190.

Regarding `CC(C)(C)CCNC(=O)Oc1ccc2c(c1)CCN2Cc1ccccc1` [Example 42, 1-benzylindolin-5-yl 3,3-dimethylbutylcarbamate], the IC50 in assay [1] was more than 100000 nM. In assay [2], the midpoint of inhibition, the IC50, lay at 23 nM; the “Ratio AChE/BuChE” value was more than 4300; the “selectivity to butyrylcholinesterase (BuChE versus AChE inhibitory activity), in words” value is on record as “much higher”.

In turn, `CC(C)(C)C1CCC(NC(=O)Oc2ccc3c(c2)CCN3Cc2ccccc2)CC1` (centres unmarked) [Example 43, 1-benzylindolin-5-yl 4-tert-butylcyclohexylcarbamate] gave an IC50 in assay [1] of more than 100000 nM. Further, in assay [2], inhibition was half-maximal at 170 nM (IC50) and the “Ratio AChE/BuChE” value was more than 590.

The compound `O=C(NC1Cc2ccccc2C1)Oc1ccc2c(c1)CCN2Cc1ccccc1` [Example 44, 1-benzylindolin-5-yl 2-indanylcarbamate] showed an IC50 in assay [1] of more than 100000 nM. In addition, in assay [2], the IC50 is 32 nM; the “Ratio AChE/BuChE” value was more than 3100; the “selectivity to butyrylcholinesterase (BuChE versus AChE inhibitory activity), in words” value is given as “much higher”.

Regarding `O=C(NC1CCCCCCC1)Oc1ccc2c(c1)CCN2Cc1ccccc1` [Example 45, 1-benzylindolin-5-yl cyclooctylcarbamate], the IC50 in assay [1] was more than 100000 nM. Further, in assay [2], the IC50 is 21 nM; the “Ratio AChE/BuChE” value is given as more than 4800; the “selectivity to butyrylcholinesterase (BuChE versus AChE inhibitory activity), in words” value is reported as “much higher”.

In the case of `CCC(COC)NC(=O)Oc1ccc2c(c1)CCN2Cc1ccccc1` (centres unmarked) [Example 46, 1-benzylindolin-5-yl 1-methoxybutan-2-ylcarbamate], the IC50 in assay [1] is more than 100000 nM. For the same compound, in assay [2], it took 150 nM to reach half-maximal inhibition (IC50) and the “Ratio AChE/BuChE” value is more than 670.
